Experimental findings from patent US10682388B2, “Targeting of PELP1 in cancer therapy” (THE BOARD OF REGENTS OF THE UNIVERSITY OF TEXAS SYSTEM, priority 2014, dated 2020) are described below.

“Also recorded” adds a separate entry of the source.

For this experiment, the system named is MCF7-TamR and MCF7-LTLT cells. Briefly: Therapy resistance assays, MTT. Conditions: FIGS. 4D-E, 11. It is filed as cell-based, Human. The procedure:
FIGS. 4A-E. (FIG. 4A) ZR75vec, ZR75PELP1, MCF7vec and MCF7PELP1 cells were treated in triplicate with TAT, PIP1 or PIP1 deletions (Del1, Del2, Del3) at 10 uM every 3 days and proliferation was measured by MTT assay on day 7. (FIG. 4B) ZRPELP1 cells were transfected with ERE-luciferase and treated with TAT, PIP1, or PIP2 for 24 hours and with estradiol for 12 hours. Relative luciferase activity was measured in triplicate. (FIG. 4C) ZR75 cells were grown in 5% DCC media for 72 hours, treated with TAT or PIP1 every 3 days, and treated with estradiol 10^−7 M for 12 hours. Proliferation was measured in triplicate on day 7 by MTT assay at 595 nm. (FIG. 4D) MCF7-Letrozole resistant cells were grown in 5% DCC media for 72 hours, treated with TAT, PIP1 or PIP2 every 3 days, and letrozole or estradiol 10^−7 M for 12 hours. Proliferation was measured in triplicate on day 7 by MTT assay at 595 nm. (FIG. 4E) MCF7-Tamoxiefn resistant cells were grown in 5% DCC media for 72 hours, treated with TAT, PIP1 or PIP2 every 3 days, and tamoxifen or estradiol 10^−7 M for 12 hours. Proliferation was measured in triplicate on day 7 by MTT assay at 595 nm.
FIG. 11. Cell proliferation assay: letrozole-resistant MCF-7-LTLT cells and Tamoxifen resistant MCF7-Tam cells were treated with TAT, PIP1, or PIP2 (10 μM)+/− letrozole or Tamoxifen.
Tamoxifen (Tam) therapy resistant MCF7-TamR and letrozole resistant MCF7-LTLT cells were cultured in tamoxifen or letrozole (10^-7M) containing media in the presence or absence of peptides and proliferation was measured by MTT assay (Sigma) following manufacturer's instructions.

For the sequence GRKKRRQRRRGGMVEFRWSCPGRRKAKA [PIP1], for the setting “MCF7-TamR and MCF7-LTLT, 10 μM”, the “proliferation of therapy resistant cell lines” value is reported as “inhibited the proliferation; also recorded: efficiently reduce the growth of therapy resistant cells”. Moreover, the “combined effect on proliferation with hormonal therapy (tamoxifen, letrozole)” value (therapy resistant cells) is “synergistic inhibition of proliferation with tamoxifen”.
